Test results published in ChEMBL document CHEMBL1201862, “PubChem BioAssay data set” (2004).
Calls of active or inactive are those of the source.

How the values were obtained:
[1] = molecular target: T1, Intestinal-type alkaline phosphatase (Homo sapiens, UniProt P09923); test: human IAP activators, dose response, biochemical, luminescent, uHTS hits, set 2 (AID 488817); assay type: functional;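 further: potency of activators that raise enzyme activity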
[2] = molecular target: Intestinal-type alkaline phosphatase (Mus musculus, UniProt P24822); test: PubChem AID 488785; assay type: functional
[3] = molecular target: T2, Ubiquitin-conjugating enzyme E2 N (Homo sapiens, UniProt P61088); assay type: functional;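 further: Dose-response confirmation in a TR-FRET assay detecting UBC13-driven polyubiquitin chain formation, inhibition measured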
T2 sequence (P61088 whole entry): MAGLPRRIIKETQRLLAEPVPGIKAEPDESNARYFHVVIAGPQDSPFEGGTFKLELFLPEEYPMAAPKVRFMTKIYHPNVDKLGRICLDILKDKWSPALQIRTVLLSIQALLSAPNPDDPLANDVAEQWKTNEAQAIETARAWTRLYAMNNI

[4] = molecular target: T1, Intestinal-type alkaline phosphatase; test: inhibition of human intestinal alkaline phosphatase – biochemical, dose response (AID 488876); assay type: functional
[5] = molecular target: Multidrug resistance protein CDR2 (Candida albicans (strain SC5314 / ATCC MYA-2876) (Yeast), UniProt P78595); test: CaCDR2 efflux pump inhibitors in yeast, dose response, S. cerevisiae AD1-8u, singleplex, Cherry Pick1 hits (AID 588604); assay type: functional
Streptococcus = test: Group A Streptococcus viability loss, dose response, counter-screen for streptokinase expression inhibitor project, luminescence, BacTiterGlo (AID 1915); assay type: functional, organism-based;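 further: potency for reduction of bacterial viability or growth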
[6] = inhibitors of SNCA 5'UTR-driven reporter translation, confirmation, H4 neuroglioma cells, luminescence (AID 1988); assay type: functional, cell-based
BJ = test: cells; assay type: functional, cell-based; conditions: Homo sapiens
[7] = molecular target: Sphingosine 1-phosphate receptor 4 (Homo sapiens, UniProt O95977); test: Fluorescence dose response cell-based high throughput screening assay for antagonists of the Sphingosine 1-Phosphate Receptor 4 (S1P4). [Related pubchem assays: 1524 (Confirmation in triplicates.), 1510 (Primary screen.)]; assay type: functional
[8] = molecular target: 3-phosphoinositide-dependent protein kinase 1 (Homo sapiens, UniProt O15530); assay type: functional;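 further: value comes from the Navigating the Kinome panel, PDPK1 member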
[9] = molecular target: MAP kinase-activated protein kinase 5 (Homo sapiens, UniProt Q8IW41); assay type: functional;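 further: measured as one member of a kinome panel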
Ephrin type-A receptor 2 = Ephrin type-A receptor 2 (Homo sapiens, UniProt P29317); assay type: functional;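 further: EPHA2 tested as one member of a kinome-wide kinase panel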
[10] = molecular target: Tyrosine-protein kinase ABL1 (Homo sapiens, UniProt P00519); assay type: functional
[11] = molecular target: Serine/threonine-protein kinase N2 (Homo sapiens, UniProt Q16513); assay type: functional
[12] = molecular target: cAMP-dependent protein kinase catalytic subunit PRKX (Homo sapiens, UniProt P51817); assay type: functional
[13] = molecular target: Mitogen-activated protein kinase 12 (Homo sapiens, UniProt P53778); assay type: functional;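 further: measured as one member of a kinome-wide kinase profiling panel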
Chain of Mitogen-activated protein kinase 12 (P53778 whole entry): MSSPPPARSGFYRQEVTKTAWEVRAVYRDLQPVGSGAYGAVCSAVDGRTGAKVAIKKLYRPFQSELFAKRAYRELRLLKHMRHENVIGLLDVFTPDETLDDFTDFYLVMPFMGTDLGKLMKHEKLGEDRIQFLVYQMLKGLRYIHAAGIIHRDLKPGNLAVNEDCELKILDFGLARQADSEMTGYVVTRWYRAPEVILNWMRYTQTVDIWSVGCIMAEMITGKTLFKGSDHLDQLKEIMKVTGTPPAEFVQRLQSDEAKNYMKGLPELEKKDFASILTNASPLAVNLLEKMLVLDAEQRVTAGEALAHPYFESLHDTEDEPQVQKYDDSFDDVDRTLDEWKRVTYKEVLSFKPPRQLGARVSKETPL

[14] = molecular target: Tyrosine-protein kinase BTK (Homo sapiens, UniProt Q06187); assay type: functional
[15] = molecular target: Serine/threonine-protein kinase PAK 1 (Homo sapiens, UniProt Q13153); assay type: functional
[16] = molecular target: Serine/threonine-protein kinase MRCK alpha (Homo sapiens, UniProt Q5VT25); assay type: functional
Chain of Serine/threonine-protein kinase MRCK alpha (Q5VT25 whole entry): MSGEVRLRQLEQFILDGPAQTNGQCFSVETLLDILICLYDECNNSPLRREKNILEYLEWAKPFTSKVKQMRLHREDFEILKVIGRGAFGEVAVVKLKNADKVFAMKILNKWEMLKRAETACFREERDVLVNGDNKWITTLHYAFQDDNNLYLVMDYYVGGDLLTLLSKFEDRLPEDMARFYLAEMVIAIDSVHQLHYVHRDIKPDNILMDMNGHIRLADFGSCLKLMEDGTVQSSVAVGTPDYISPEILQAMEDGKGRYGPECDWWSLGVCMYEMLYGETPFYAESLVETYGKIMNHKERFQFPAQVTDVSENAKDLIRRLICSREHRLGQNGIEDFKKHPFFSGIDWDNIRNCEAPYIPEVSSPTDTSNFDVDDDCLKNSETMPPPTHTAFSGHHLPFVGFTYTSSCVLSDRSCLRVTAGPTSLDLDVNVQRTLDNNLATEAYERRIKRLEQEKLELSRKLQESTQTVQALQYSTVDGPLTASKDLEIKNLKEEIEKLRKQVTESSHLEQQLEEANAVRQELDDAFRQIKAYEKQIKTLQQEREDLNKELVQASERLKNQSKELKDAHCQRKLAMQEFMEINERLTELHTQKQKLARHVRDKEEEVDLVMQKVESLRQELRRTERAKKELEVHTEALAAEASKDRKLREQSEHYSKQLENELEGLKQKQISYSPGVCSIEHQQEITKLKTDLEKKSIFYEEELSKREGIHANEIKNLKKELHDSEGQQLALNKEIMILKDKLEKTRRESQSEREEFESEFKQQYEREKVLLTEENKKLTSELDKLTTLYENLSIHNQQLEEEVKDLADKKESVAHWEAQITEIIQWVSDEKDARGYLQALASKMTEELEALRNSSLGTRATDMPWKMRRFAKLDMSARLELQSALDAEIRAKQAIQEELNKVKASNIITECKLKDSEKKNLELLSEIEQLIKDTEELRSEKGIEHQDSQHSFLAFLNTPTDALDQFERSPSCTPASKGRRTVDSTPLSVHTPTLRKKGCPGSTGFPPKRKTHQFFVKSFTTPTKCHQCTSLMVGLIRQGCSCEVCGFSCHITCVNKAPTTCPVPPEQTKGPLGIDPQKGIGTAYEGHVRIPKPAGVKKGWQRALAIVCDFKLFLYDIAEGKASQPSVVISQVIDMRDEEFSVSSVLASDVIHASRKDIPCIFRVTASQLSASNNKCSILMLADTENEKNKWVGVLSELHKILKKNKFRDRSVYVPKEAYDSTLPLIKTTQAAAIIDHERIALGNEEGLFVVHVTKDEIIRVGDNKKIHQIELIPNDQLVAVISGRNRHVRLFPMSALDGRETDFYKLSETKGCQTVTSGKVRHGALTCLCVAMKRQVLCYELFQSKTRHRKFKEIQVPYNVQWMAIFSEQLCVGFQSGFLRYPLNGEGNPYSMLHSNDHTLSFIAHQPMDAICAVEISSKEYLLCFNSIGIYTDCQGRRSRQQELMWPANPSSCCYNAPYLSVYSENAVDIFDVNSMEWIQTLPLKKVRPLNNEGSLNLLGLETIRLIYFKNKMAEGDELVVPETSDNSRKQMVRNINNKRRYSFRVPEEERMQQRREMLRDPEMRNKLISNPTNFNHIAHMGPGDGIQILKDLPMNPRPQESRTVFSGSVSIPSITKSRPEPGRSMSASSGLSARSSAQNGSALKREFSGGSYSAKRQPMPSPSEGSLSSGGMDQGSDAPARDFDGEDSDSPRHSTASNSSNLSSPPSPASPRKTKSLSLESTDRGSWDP

[17] = molecular target: Dual specificity protein kinase CLK4 (Homo sapiens, UniProt Q9HAZ1); assay type: functional
[18] = molecular target: Mitogen-activated protein kinase kinase kinase kinase 2 (Homo sapiens, UniProt Q12851); assay type: functional;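 further: measured as one member of a kinome-wide kinase panel, with MAP4K2 as the panel entry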
Chain of Mitogen-activated protein kinase kinase kinase kinase 2 (Q12851 whole entry): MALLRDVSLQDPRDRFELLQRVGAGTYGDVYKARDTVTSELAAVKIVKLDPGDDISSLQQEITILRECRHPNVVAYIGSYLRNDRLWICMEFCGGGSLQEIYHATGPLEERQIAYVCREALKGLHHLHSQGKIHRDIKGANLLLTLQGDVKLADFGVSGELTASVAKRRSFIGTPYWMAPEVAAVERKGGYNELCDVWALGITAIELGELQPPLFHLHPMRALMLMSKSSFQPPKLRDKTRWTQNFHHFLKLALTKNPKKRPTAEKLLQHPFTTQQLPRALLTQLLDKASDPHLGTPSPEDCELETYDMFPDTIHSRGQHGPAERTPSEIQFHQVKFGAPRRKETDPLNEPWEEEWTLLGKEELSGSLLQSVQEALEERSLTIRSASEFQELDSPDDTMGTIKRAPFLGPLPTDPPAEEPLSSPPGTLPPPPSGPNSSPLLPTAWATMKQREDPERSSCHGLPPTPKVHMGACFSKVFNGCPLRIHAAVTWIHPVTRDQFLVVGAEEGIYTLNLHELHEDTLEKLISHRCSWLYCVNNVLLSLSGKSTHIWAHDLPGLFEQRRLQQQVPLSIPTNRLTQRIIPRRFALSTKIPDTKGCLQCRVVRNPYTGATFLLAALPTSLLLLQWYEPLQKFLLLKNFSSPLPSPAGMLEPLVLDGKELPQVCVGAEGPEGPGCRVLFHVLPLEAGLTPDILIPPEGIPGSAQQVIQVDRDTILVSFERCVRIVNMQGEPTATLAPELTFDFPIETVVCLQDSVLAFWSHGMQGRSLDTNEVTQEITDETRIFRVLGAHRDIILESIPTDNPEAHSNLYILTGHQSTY

[19] = molecular target: Megakaryocyte-associated tyrosine-protein kinase (Homo sapiens, UniProt P42679); assay type: functional;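 further: affinity measured as one member of a kinase panel (Navigating the Kinome) against MATK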
[20] = molecular target: Dual specificity tyrosine-phosphorylation-regulated kinase 3 (Homo sapiens, UniProt O43781); assay type: functional;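 further: measured as one member of a broad kinase panel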
[21] = molecular target: Serine/threonine-protein kinase 3 (Homo sapiens, UniProt Q13188); assay type: functional;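 further: measured as one member of a kinome-wide kinase panel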
Chain of Serine/threonine-protein kinase 3 (Q13188 whole entry): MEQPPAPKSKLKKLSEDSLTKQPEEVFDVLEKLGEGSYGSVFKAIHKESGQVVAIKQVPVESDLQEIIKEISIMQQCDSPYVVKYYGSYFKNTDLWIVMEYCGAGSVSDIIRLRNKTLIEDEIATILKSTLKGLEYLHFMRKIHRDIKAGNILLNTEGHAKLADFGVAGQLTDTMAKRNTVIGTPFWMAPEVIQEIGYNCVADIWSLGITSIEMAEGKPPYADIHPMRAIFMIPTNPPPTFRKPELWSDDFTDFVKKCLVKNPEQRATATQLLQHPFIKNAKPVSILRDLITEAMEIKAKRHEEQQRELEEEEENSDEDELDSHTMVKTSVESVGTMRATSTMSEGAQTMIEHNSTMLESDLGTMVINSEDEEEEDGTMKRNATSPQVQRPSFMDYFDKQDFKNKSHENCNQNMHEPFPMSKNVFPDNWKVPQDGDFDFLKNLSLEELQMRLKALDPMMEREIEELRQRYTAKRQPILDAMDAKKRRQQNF

[22] = molecular target: Protein kinase C theta type (Homo sapiens, UniProt Q04759); test: Navigating the Kinome. Panel member name: PRKCQ; assay type: functional
Chain of Protein kinase C theta type (Q04759 whole entry): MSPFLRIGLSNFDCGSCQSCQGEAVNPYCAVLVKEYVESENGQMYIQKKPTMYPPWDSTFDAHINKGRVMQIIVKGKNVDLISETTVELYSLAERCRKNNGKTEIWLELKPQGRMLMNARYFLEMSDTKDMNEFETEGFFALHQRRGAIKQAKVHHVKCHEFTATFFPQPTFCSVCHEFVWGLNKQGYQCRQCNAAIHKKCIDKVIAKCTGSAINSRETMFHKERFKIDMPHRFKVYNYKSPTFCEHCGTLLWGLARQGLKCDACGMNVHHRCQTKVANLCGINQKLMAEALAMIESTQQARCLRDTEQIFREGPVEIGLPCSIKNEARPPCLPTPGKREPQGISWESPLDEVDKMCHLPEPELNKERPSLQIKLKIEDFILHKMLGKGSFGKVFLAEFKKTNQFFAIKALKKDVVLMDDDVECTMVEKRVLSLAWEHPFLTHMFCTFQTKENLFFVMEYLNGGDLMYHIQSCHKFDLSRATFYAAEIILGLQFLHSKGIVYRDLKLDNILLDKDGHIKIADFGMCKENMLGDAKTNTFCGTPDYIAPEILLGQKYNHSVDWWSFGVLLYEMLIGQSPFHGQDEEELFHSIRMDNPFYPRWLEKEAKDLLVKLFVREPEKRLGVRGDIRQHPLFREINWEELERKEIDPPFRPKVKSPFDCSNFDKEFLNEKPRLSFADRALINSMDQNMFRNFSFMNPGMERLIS

Focal adhesion kinase 1 = Focal adhesion kinase 1 (Homo sapiens, UniProt Q05397); assay type: functional;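 further: measured as one member of a kinome panel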
[23] = molecular target: Homeodomain-interacting protein kinase 2 (Homo sapiens, UniProt Q9H2X6); assay type: functional;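 further: measured within a kinome-wide kinase profiling panel, HIPK2 being one panel member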
[24] = molecular target: Lymphokine-activated killer T-cell-originated protein kinase (Homo sapiens, UniProt Q96KB5); assay type: functional;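 further: value comes from a kinase panel screen in which TOPK was one of the panel members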
Chain of Lymphokine-activated killer T-cell-originated protein kinase (Q96KB5 whole entry): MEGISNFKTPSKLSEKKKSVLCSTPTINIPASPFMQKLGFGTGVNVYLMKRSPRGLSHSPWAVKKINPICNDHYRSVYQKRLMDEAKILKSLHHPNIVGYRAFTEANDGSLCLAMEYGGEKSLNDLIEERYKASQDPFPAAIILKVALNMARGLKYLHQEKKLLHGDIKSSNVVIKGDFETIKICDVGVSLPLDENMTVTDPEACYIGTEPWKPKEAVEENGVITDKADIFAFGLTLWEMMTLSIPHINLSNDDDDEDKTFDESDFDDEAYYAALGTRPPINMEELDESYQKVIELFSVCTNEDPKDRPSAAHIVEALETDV

[25] = molecular target: Serine/threonine-protein kinase TAO1 (Homo sapiens, UniProt Q7L7X3); assay type: functional
[26] = molecular target: Receptor tyrosine-protein kinase erbB-4 (Homo sapiens, UniProt Q15303); assay type: functional;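 further: ERBB4 member of a kinome-wide kinase profiling panel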
[27] = molecular target: Calcium/calmodulin-dependent protein kinase type II subunit alpha (Homo sapiens, UniProt Q9UQM7); test: Navigating the Kinome. Panel member name: CAMK2A; assay type: functional
[28] = molecular target: Tyrosine-protein kinase JAK3 (Homo sapiens, UniProt P52333); assay type: functional
[29] = molecular target: Dual specificity tyrosine-phosphorylation-regulated kinase 1B (Homo sapiens, UniProt Q9Y463); test: Navigating the Kinome. Panel member name: DYRK1B; assay type: functional
[30] = molecular target: ALK tyrosine kinase receptor (Homo sapiens, UniProt Q9UM73); assay type: functional;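 further: ALK tested as one member of a kinase panel screen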
[31] = molecular target: Vascular endothelial growth factor receptor 1 (Homo sapiens, UniProt P17948); assay type: functional;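 further: measured within a kinome-wide profiling panel, FLT1 as the panel member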
[32] = molecular target: Serine/threonine-protein kinase Chk1 (Homo sapiens, UniProt O14757); assay type: functional;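 further: measured as one member of a kinome-wide kinase profiling panel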
[33] = molecular target: Tyrosine-protein kinase receptor TYRO3 (Homo sapiens, UniProt Q06418); assay type: functional;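 further: TYRO3 value obtained as one member of a kinome-wide profiling panel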
[34] = molecular target: cAMP-dependent protein kinase catalytic subunit alpha (Homo sapiens, UniProt P17612); assay type: functional
[35] = molecular target: Mitogen-activated protein kinase 8 (Homo sapiens, UniProt P45983); assay type: functional;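 further: value comes from one member of a kinome-wide kinase profiling panel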
HeLa = test: HeLa cell cytotoxicity, dose response, cytotoxicity control, 24 h, cherry-picked samples (AID 504726); assay type: functional, cell-based; conditions: Homo sapiens;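 further: potency for cytotoxicity as loss of luminescence signal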
Albumin = Albumin (Bos taurus, UniProt P02769); test: Counterscreen for inhibitors of T-cell receptor (TCR)-CD3 interaction: Fluorescence-based biochemical high throughput dose response assay to identify inhibitors of T-cell receptor (TCR)-CD3 interaction using a TAMRA-labeled BSA probe.; assay type: functional
[36] = molecular target: Induced myeloid leukemia cell differentiation protein Mcl-1 (Homo sapiens, UniProt Q07820); assay type: functional

T1 sequence (P09923 whole entry): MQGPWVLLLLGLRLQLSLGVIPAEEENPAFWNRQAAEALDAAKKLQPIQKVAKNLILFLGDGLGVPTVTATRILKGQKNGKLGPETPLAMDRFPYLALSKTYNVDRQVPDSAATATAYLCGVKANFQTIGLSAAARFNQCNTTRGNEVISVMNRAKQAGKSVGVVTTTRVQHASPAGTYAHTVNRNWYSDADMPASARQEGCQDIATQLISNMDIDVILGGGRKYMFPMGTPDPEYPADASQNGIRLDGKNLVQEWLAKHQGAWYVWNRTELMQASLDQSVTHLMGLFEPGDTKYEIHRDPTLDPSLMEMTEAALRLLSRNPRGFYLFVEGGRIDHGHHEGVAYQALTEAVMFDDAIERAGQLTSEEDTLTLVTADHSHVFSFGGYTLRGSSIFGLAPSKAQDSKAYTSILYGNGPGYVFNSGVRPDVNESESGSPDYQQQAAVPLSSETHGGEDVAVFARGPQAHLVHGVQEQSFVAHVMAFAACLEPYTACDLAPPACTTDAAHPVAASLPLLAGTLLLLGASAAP

## O=C(NN1C(=O)CSC1=S)C(=O)NN1C(=O)CSC1=S
[1]
  EC50: 12.4 µM (active)
[2]
  IC50: 7.75 µM (active)
[3]
  IC50: > 20 µM (inactive)
[4]
  IC50: > 100 µM (inactive)

## Cc1ccc2[nH]c(/C(C#N)=C/c3ccc(O)c(O)c3)nc2c1
[5]
  EC50: 2.17 µM (active)

## COC(=O)C1CN(C#N)N(c2ccc(Cl)cc2)C12c1ccccc1-c1ccccc12 (configuration not stated)
Streptococcus
  EC50: 20.7 µM (active)
[6]
  EC50: 7.38 µM (active)
BJ
  EC50: 2.9 µM (active)
[7]
  IC50: 313 nM (active)

## Nc1noc2cccc(-c3cccc(O)c3)c12
[8]
  Ki: > 3.98 µM (inactive)
[9]
  Ki: > 1.58 µM (inactive)
Ephrin type-A receptor 2
  Ki: > 3.16 µM (inactive)
[10]
  Ki: > 1 µM (inactive)
[11]
  Ki: > 7.94 µM (inactive)
[12]
  Ki: 5.01 µM (active)
[13]
  Ki: > 6.31 µM (inactive)
[14]
  Ki: > 39.8 µM (inactive)
[15]
  Ki: > 10 µM (inactive)
[16]
  Ki: > 10 µM (inactive)
[17]
  Ki: 1.26 µM (active)
[18]
  Ki: 15.8 µM (active)
[19]
  Ki: > 2 µM (inactive)
[20]
  Ki: > 6.31 µM (inactive)
[21]
  Ki: 6.31 µM (active)
[22]
  Ki: 20 µM (active)
Focal adhesion kinase 1
  Ki: > 39.8 µM (inactive)
[23]
  Ki: > 3.16 µM (inactive)
[24]
  Ki: > 10 µM (inactive)
[25]
  Ki: > 25.1 µM (inactive)
[26]
  Ki: > 3.98 µM (inactive)
[27]
  Ki: 50.1 µM (active)
[28]
  Ki: > 1.58 µM (inactive)
[29]
  Ki: 3.16 µM (active)
[30]
  Ki: 6.31 µM (active)
[31]
  Ki: > 10 µM (inactive)
[32]
  Ki: > 7.94 µM (inactive)
[33]
  Ki: > 7.94 µM (inactive)
[34]
  Ki: 2.51 µM (active)
[35]
  Ki: > 25.1 µM (inactive)

## O=C1NC(=S)S/C1=C\C=C\c1ccc([N+](=O)[O-])o1
HeLa
  AC50: 12.5 µM (active)
Albumin
  IC50: > 94.1 µM (inactive)
[36]
  IC50: 1.92 µM (active)
